Results published in PubChem BioAssay AID248 (DTP/NCI, 2004).
Toxic doses and inconclusive results are not listed.

System: L1210 leukemia ip in BDF1 mice, survival T/C
Assay: NCI In Vivo Anticancer Drug Screen. Data for tumor model L1210 Leukemia (intraperitoneal) in B6D2F1 (BDF1) mice
Settings: endpoint: mean survival time, higher = longer survival
In short: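 Transplanted-tumor mice were given test agent; controls received vehicle only. Survival readings from the two groups were divided (treated over control).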

[1] = dose: 250.0 mg/kg/injection, schedule: Q01DX Z (ip), vehicle: carboxymethylcellulose (CMC)
[2] = dose: 100.0 mg/kg/injection, schedule: Q04DX003 (ip), vehicle: Klucel (hydroxypropylcellulose) (HPC)
[3] = dose: 200.0 mg/kg/injection, schedule: Q04DX003 (ip), vehicle: Klucel (hydroxypropylcellulose) (HPC)
[4] = dose: 400.0 mg/kg/injection, schedule: Q04DX003 (ip), vehicle: Klucel (hydroxypropylcellulose) (HPC)
[5] = dose: 100.0 mg/kg/injection, schedule: Q01DX009 (ip), vehicle: saline with Tween-80
[6] = dose: 100.0 mg/kg/injection, schedule: Q04DX003 (ip), vehicle: saline with Tween-80
[7] = dose: 200.0 mg/kg/injection, schedule: Q01DX009 (ip), vehicle: saline with Tween-80
[8] = dose: 200.0 mg/kg/injection, schedule: Q04DX003 (ip), vehicle: saline with Tween-80
[9] = dose: 400.0 mg/kg/injection, schedule: Q01DX009 (ip), vehicle: saline with Tween-80
[10] = dose: 400.0 mg/kg/injection, schedule: Q04DX003 (ip), vehicle: saline with Tween-80
[11] = dose: 100.0 mg/kg/injection, schedule: Q01DX009 (ip), vehicle: Klucel (hydroxypropylcellulose) (HPC)
[12] = dose: 200.0 mg/kg/injection, schedule: Q01DX009 (ip), vehicle: Klucel (hydroxypropylcellulose) (HPC)
[13] = dose: 400.0 mg/kg/injection, schedule: Q01DX009 (ip), vehicle: Klucel (hydroxypropylcellulose) (HPC)
[14] = dose: 100.0 mg/kg/injection, schedule: Q01DX001 (ip), vehicle: carboxymethylcellulose (CMC)
[15] = dose: 200.0 mg/kg/injection, schedule: Q01DX001 (ip), vehicle: carboxymethylcellulose (CMC)
[16] = dose: 400.0 mg/kg/injection, schedule: Q01DX001 (ip), vehicle: carboxymethylcellulose (CMC)
[17] = dose: 100.0 mg/kg/injection, schedule: Q01DX001 (ip), vehicle: saline
[18] = dose: 200.0 mg/kg/injection, schedule: Q01DX001 (ip), vehicle: saline
[19] = dose: 400.0 mg/kg/injection, schedule: Q01DX001 (ip), vehicle: saline

## O=C(Nc1ccc(NC(=O)c2ccc(C3=NCCN3)cc2)cc1)Nc1ccc(C2=NCCN2)cc1
dose: 6.25 mg/kg/injection, schedule: Q01DX Z (ip), vehicle: carboxymethylcellulose (CMC)
  T/C: 117 % of control
dose: 25.0 mg/kg/injection, schedule: Q01DX Z (ip), vehicle: carboxymethylcellulose (CMC)
  T/C: 206 % of control
dose: 50.0 mg/kg/injection, schedule: Q01DX Z (ip), vehicle: carboxymethylcellulose (CMC)
  T/C: 268 % of control
dose: 62.0 mg/kg/injection, schedule: Q01DX Z (ip), vehicle: carboxymethylcellulose (CMC)
  T/C: 282 % of control
dose: 62.0 mg/kg/injection, schedule: Q01DX Z (oral), vehicle: carboxymethylcellulose (CMC)
  T/C: 120 % of control
dose: 100.0 mg/kg/injection, schedule: Q01DX Z (ip), vehicle: carboxymethylcellulose (CMC)
  T/C: 106 % of control
dose: 125.0 mg/kg/injection, schedule: Q01DX Z (ip), vehicle: carboxymethylcellulose (CMC)
  T/C: 214 % of control
dose: 125.0 mg/kg/injection, schedule: Q01DX Z (oral), vehicle: carboxymethylcellulose (CMC)
  T/C: 97 % of control
dose: 150.0 mg/kg/injection, schedule: Q01DX Z (ip), vehicle: carboxymethylcellulose (CMC)
  T/C: 94 % of control
dose: 175.0 mg/kg/injection, schedule: Q01DX Z (ip), vehicle: carboxymethylcellulose (CMC)
  T/C: 115 % of control
[1]
  T/C: 109 % of control
dose: 250.0 mg/kg/injection, schedule: Q01DX Z (oral), vehicle: carboxymethylcellulose (CMC)
  T/C: 103 % of control
dose: 300.0 mg/kg/injection, schedule: Q01DX Z (oral), vehicle: carboxymethylcellulose (CMC)
  T/C: 103 % of control

## Cc1ccc(SS(=O)(=O)c2ccc(C)cc2)cc1
dose: 100.0 mg/kg/injection, schedule: Q01DX001 (ip), vehicle: Klucel (hydroxypropylcellulose) (HPC)
  T/C: 86 % of control
dose: 100.0 mg/kg/injection, schedule: Q01DX009 (ip), vehicle: saline sonified
  T/C: 116 % of control
[2]
  T/C: 114 % of control
dose: 200.0 mg/kg/injection, schedule: Q01DX001 (ip), vehicle: Klucel (hydroxypropylcellulose) (HPC)
  T/C: 86 % of control
dose: 200.0 mg/kg/injection, schedule: Q01DX009 (ip), vehicle: saline sonified
  T/C: 102 % of control
[3]
  T/C: 101 % of control
dose: 400.0 mg/kg/injection, schedule: Q01DX009 (ip), vehicle: saline sonified
  T/C: 107 % of control
[4]
  T/C: 106 % of control

## COc1cc(/C=N/NC(=O)c2ccncc2)cc(OC)c1OC
[5]
  T/C: 112 % of control
[6]
  T/C: 111 % of control
[7]
  T/C: 101 % of control
[8]
  T/C: 118 % of control
[9]
  T/C: 98 % of control
[10]
  T/C: 100 % of control

## O=C(NS(=O)(=O)c1ccc(Cl)cc1)c1ccccc1
[5]
  T/C: 94 % of control
dose: 100.0 mg/kg/injection, schedule: Q04DX003 (ip), vehicle: acetone
  T/C: 104 % of control
dose: 200.0 mg/kg/injection, schedule: Q04DX003 (ip), vehicle: acetone
  T/C: 107 % of control
dose: 400.0 mg/kg/injection, schedule: Q04DX003 (ip), vehicle: acetone
  T/C: 93 % of control

## CCCC(CCC)NCCOC(=O)c1ccc(N)cc1
dose: 75.0 mg/kg/injection, schedule: Q01DX001 (ip), vehicle: other
  T/C: 101 % of control

## Cc1ccc(NC(N)=O)cc1Cl
[11]
  T/C: 105 % of control
[12]
  T/C: 107 % of control
[13]
  T/C: 102 % of control

## Cn1nnnc1N
[11]
  T/C: 96 % of control
dose: 100.0 mg/kg/injection, schedule: Q01DX009 (ip), vehicle: saline
  T/C: 98 % of control
dose: 100.0 mg/kg/injection, schedule: Q04DX003 (ip), vehicle: saline
  T/C: 103 % of control
[12]
  T/C: 100 % of control
dose: 200.0 mg/kg/injection, schedule: Q01DX009 (ip), vehicle: saline
  T/C: 96 % of control
dose: 200.0 mg/kg/injection, schedule: Q04DX003 (ip), vehicle: saline
  T/C: 105 % of control
[13]
  T/C: 95 % of control
dose: 400.0 mg/kg/injection, schedule: Q01DX009 (ip), vehicle: saline
  T/C: 89 % of control
dose: 400.0 mg/kg/injection, schedule: Q04DX003 (ip), vehicle: saline
  T/C: 100 % of control

## Cc1ncc([N+](=O)[O-])n1C
[2]
  T/C: 100 % of control
[3]
  T/C: 100 % of control
[4]
  T/C: 97 % of control

## COc1ccc([N+](=O)[O-])cc1NC(=S)NC(=O)c1cccc(Br)c1
[11]
  T/C: 92 % of control
[12]
  T/C: 92 % of control
[13]
  T/C: 97 % of control

## O=C(O)c1cc(Cl)nc(Cl)c1
[11]
  T/C: 97 % of control
[12]
  T/C: 88 % of control

## CCN(CC)CC(O)CNc1ccnc2cc(Cl)ccc12 (centres undefined)
dose: 25.0 mg/kg/injection, schedule: Q01DX009 (ip), vehicle: saline with Tween-80
  T/C: 97 % of control
dose: 50.0 mg/kg/injection, schedule: Q01DX009 (ip), vehicle: saline with Tween-80
  T/C: 86 % of control
[5]
  T/C: 97 % of control

## O=c1oc2c([N+](=O)[O-])cc([N+](=O)[O-])cc2c2ccccc12
dose: 50.0 mg/kg/injection, schedule: Q01DX001 (ip), vehicle: carboxymethylcellulose (CMC)
  T/C: 105 % of control
[14]
  T/C: 94 % of control
[15]
  T/C: 100 % of control
[16]
  T/C: 92 % of control

## NC(Cc1cccs1)C(=O)O (centres undefined)
[14]
  T/C: 96 % of control
[5]
  T/C: 101 % of control
[6]
  T/C: 99 % of control
[15]
  T/C: 101 % of control
[7]
  T/C: 104 % of control
[8]
  T/C: 99 % of control
[1]
  T/C: 89 % of control
[16]
  T/C: 101 % of control
[9]
  T/C: 97 % of control
[10]
  T/C: 96 % of control
dose: 1000.0 mg/kg/injection, schedule: Q01DX Z (ip), vehicle: carboxymethylcellulose (CMC)
  T/C: 92 % of control

## CCOC(=O)c1cnc(SC)nc1NCCc1ccccc1
[11]
  T/C: 98 % of control
[12]
  T/C: 91 % of control
[13]
  T/C: 95 % of control

## Cc1nc(N)[nH]c(=O)c1CCCS
[17]
  T/C: 104 % of control
[18]
  T/C: 101 % of control
[19]
  T/C: 102 % of control

## Cc1c(NC(=O)Nc2ccccc2C(F)(F)F)c(=O)n(-c2ccccc2)n1C
[5]
  T/C: 104 % of control
[7]
  T/C: 98 % of control
[9]
  T/C: 91 % of control

## COc1cc([N+](=O)[O-])ccc1NC(=O)NCCc1ccc(OC)c(OC)c1
[11]
  T/C: 93 % of control
[12]
  T/C: 96 % of control
[13]
  T/C: 100 % of control

## CCCCCCCCn1nnnc1-c1nnn(C)n1
[11]
  T/C: 106 % of control
[12]
  T/C: 104 % of control
[13]
  T/C: 101 % of control

## C[n+]1c(-c2cccc3ccccc23)c2cc([N+](=O)[O-])ccc2c2ccccc21
dose: 6.25 mg/kg/injection, schedule: Q01DX009 (ip), vehicle: water
  T/C: 104 % of control
dose: 12.5 mg/kg/injection, schedule: Q01DX009 (ip), vehicle: water
  T/C: 100 % of control
dose: 12.5 mg/kg/injection, schedule: Q04DX003 (ip), vehicle: water
  T/C: 98 % of control
dose: 25.0 mg/kg/injection, schedule: Q04DX003 (ip), vehicle: water
  T/C: 105 % of control
dose: 50.0 mg/kg/injection, schedule: Q04DX003 (ip), vehicle: water
  T/C: 93 % of control

## CNC(=O)NC1ON=C(c2ccccc2)C1C(=O)NC (centres undefined)
dose: 100.0 mg/kg/injection, schedule: Q01DX001 (ip), vehicle: saline with Tween-80
  T/C: 98 % of control
dose: 200.0 mg/kg/injection, schedule: Q01DX001 (ip), vehicle: saline with Tween-80
  T/C: 95 % of control

## C=CCc1ccc(OC(=O)Nc2ccccc2)c(OC)c1
dose: 100.0 mg/kg/injection, schedule: Q04DX002 (ip), vehicle: Klucel (hydroxypropylcellulose) (HPC)
  T/C: 87 % of control
dose: 200.0 mg/kg/injection, schedule: Q04DX002 (ip), vehicle: Klucel (hydroxypropylcellulose) (HPC)
  T/C: 87 % of control
dose: 400.0 mg/kg/injection, schedule: Q04DX002 (ip), vehicle: Klucel (hydroxypropylcellulose) (HPC)
  T/C: 87 % of control

## O=C(/C=C\c1ccccc1)OCCCCOC(=O)/C=C/c1ccccc1
dose: 50.0 mg/kg/injection, schedule: Q01DX001 (ip), vehicle: saline
  T/C: 103 % of control
[17]
  T/C: 101 % of control
[18]
  T/C: 91 % of control
[19]
  T/C: 97 % of control
